Assay results taken from patent US20230364272A1, “THERANOSTIC COMPOUNDS” (NRF ITHEMBA LABS, priority 2020, published 2023).

How the values were obtained:
Type in all cases: cell-based
[1] = tested on: cervical (HeLa) cancer cell line; assay: ADAM10 biological activity, EC50 in HeLa cells
[2] = tested on: esophageal (WHCO5) cancer cell line; assay: ADAM10 biological activity, EC50 in WHCO5 cells
[3] = tested on: cervical (HeLa) cancer cell line; assay: Radioactivity uptake of ^123I radiolabeled ADAM10 inhibitor in HeLa cells; conditions: for uptake (in words): Table 1 / FIG. 2 experiment
Method: (§1) In order to test the biological activity of the radiolabeled compound in vitro, two cell lines were chosen as esophageal (WHCO5) and cervical (HeLa) cancer cell lines (using [^123I]Nal as the control) and the radioactivity uptake was measured using a bore-hole or scintillation counter. […] The well plates were incubated for one hour in a humidified CO2 incubator at 37° C. The measurements were performed with a ^123I Multi Channel Analyzer, and during the incubation time, a calibration and counting efficiency determination was carried out on the channel.^33
(§2) After the one-hour incubation period, the growth medium was aspirated, leaving the adherent cell monolayers intact and the cell cultures rinsed twice with cold PBS to remove any residual extracellular radioactivity. The cell monolayers were lysed with 1 mL 1M NaOH, and 1 mL of each lysed suspension was transferred to a clean test tube. The data is presented as an average of triplicates and was corrected for ^123I decay using Eff Corr as the correcting factor, which considers the half-life and decay of the radionuclide over a specific time interval.
(§3) […] Data represents an average and standard deviation of 12 replicates using 0.3 μCi of ^123I-SN-311 and 200000 cells.

[4] = tested on: esophageal (WHCO5) cancer cell line; assay: Radioactivity uptake of ^123I radiolabeled ADAM10 inhibitor in WHCO5 cells; conditions: for uptake (in words): WHCO5, Table 1 / FIG. 2 experiment
Method: as §1, §2, §3

[5] = tested on: cervical (HeLa) cancer cell line; assay: Radioactivity uptake of ^123I radiolabeled ADAM10 inhibitor in HeLa cells; conditions: 3 mCi (title); for Average counts per min: 1 h incubation; for A(0) per well × Eff corr: decay corrected
[6] = tested on: esophageal (WHCO5) cancer cell line; assay: Radioactivity uptake of ^123I radiolabeled ADAM10 inhibitor in WHCO5 cells; conditions: 3 mCi (title); for Average counts per min: 1 h incubation; for A(0) per well × Eff corr: decay corrected

Compound | uptake (in words) [3] | uptake (in words) [4] | Bq per well ([5]; 50000 cells) [Bq] | Average counts per min ([5]; 50000 cells) [counts per min] | A(0) per well × Eff corr ([5]; 50000 cells) | Bq per well ([5]; 100000 cells) [Bq] | Average counts per min ([5]; 100000 cells) [counts per min] | A(0) per well × Eff corr ([5]; 100000 cells) | Bq per well ([5]; 150000 cells) [Bq] | Average counts per min ([5]; 150000 cells) [counts per min] | A(0) per well × Eff corr ([5]; 150000 cells) | Bq per well ([5]; 200000 cells) [Bq] | Average counts per min ([5]; 200000 cells) [counts per min] | A(0) per well × Eff corr ([5]; 200000 cells) | Bq per well ([6]; WHCO5, 50000 cells) [Bq] | Average counts per min ([6]; WHCO5, 50000 cells) [counts per min] | A(0) per well × Eff corr ([6]; WHCO5, 50000 cells) | Bq per well ([6]; WHCO5, 100000 cells) [Bq] | Average counts per min ([6]; WHCO5, 100000 cells) [counts per min] | A(0) per well × Eff corr ([6]; WHCO5, 100000 cells) | further results
CNC(=O)[C@@H](NC(=O)[C@H](CCCc1ccccc1)[C@@H](C)N(O)C=O)C(C)(C)C [SN-311] | – | – | – | – | – | – | – | – | – | – | – | – | – | – | – | – | – | – | – | – | EC50 compared with G1254023X [1]: fall within the 95% confidence interval of that of G1254023X; EC50 compared with G1254023X [2]: fall within the 95% confidence interval of that of G1254023X
CNC(=O)C(NC(=O)C(CCCc1ccc([123I])cc1)C(C)N(O)C=O)C(C)(C)C (centres unmarked) [^123I-SN-311] | clear uptake | clear uptake | 455 | 6080 | 27284 | 567 | 7582 | 34023 | 691 | 9236 | 41445 | 864 | 11555 | 51852 | 698 | 9337 | 41898 | 988 | 13207 | 59265 | uptake of the radiolabeled compound ([3]; 0.3 μCi per well, 200000 cells, average of 12 replicates): 81.76 Bq; uptake of the radiolabeled compound ([4]; WHCO5, 0.3 μCi per well, 200000 cells, average of 12 replicates): 127.63 Bq; Bq per well ([6]; WHCO5, 150000 cells): 1202 Bq; Average counts per min ([6]; WHCO5, 150000 cells): 16075 counts per min; A(0) per well × Eff corr ([6]; WHCO5, 150000 cells): 72135; Bq per well ([6]; WHCO5, 200000 cells): 1421 Bq; Average counts per min ([6]; WHCO5, 200000 cells): 18996 counts per min; A(0) per well × Eff corr ([6]; WHCO5, 200000 cells): 85240
[123I-].[Na+] [[^123I]NaI, reference compound] | minimal uptake | minimal uptake | 148 | 1974 | 8857 | 149 | 1991 | 8934 | 173 | 2308 | 10355 | 161 | 2147 | 9635 | 297 | 3968 | 17807 | 308 | 4116 | 18470 | Bq per well ([6]; WHCO5, 150000 cells): 317 Bq; Average counts per min ([6]; WHCO5, 150000 cells): 4239 counts per min; A(0) per well × Eff corr ([6]; WHCO5, 150000 cells): 19021; Bq per well ([6]; WHCO5, 200000 cells): 357 Bq; Average counts per min ([6]; WHCO5, 200000 cells): 4772 counts per min; A(0) per well × Eff corr ([6]; WHCO5, 200000 cells): 21415
